Assay results reported in paper PMC9497135, “Structure-Based Study to Overcome Cross-Reactivity of Novel Androgen Receptor Inhibitors” (Cells, 2022).
Changes are numbered by the printed parent chain.

Columns and labels:
wild-type AR = target: T1, wild-type AR (Homo sapiens, UniProt P10275); assay: Luciferase reporter assay, PC3 cells transfected with wild-type AR; type: cell-based; settings: in the presence of R1881
T1 construct: Full-length human wild type AR was cloned into pcDNA3.1 expression plasmid; expressed in transfected cells; host or cells: PC3
T1 sequence (P10275 1-920): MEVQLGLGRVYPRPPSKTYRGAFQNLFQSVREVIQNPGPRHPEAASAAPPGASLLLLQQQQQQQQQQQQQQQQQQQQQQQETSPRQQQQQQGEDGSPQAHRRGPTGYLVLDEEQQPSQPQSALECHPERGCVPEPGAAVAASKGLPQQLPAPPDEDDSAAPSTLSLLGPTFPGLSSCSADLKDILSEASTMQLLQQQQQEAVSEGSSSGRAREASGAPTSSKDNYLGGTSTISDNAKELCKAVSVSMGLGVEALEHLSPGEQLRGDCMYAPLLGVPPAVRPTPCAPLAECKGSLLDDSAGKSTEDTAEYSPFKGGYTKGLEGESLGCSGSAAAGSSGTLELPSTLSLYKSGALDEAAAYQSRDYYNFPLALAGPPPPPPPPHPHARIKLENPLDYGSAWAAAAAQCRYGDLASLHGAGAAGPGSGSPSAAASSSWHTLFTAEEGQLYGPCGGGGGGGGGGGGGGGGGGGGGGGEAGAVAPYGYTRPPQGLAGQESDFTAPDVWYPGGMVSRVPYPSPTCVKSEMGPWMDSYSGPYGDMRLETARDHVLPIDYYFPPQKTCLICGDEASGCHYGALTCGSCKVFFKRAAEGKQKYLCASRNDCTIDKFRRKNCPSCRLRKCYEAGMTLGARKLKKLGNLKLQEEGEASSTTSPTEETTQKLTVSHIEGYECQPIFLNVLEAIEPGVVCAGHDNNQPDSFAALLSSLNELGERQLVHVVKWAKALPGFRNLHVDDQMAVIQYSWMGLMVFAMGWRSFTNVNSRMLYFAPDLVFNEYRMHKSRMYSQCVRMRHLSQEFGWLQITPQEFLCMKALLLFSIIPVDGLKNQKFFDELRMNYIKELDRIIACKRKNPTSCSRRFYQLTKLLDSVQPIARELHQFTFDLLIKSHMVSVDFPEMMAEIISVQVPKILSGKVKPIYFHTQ
Method: Full-length human wild type AR was cloned into pcDNA3.1 expression plasmid (Invitrogen, Waltham, MA, USA) with a CMV promoter. The T878A mutant (T878A-AR) was generated with the Quikchange Mutagenesis Kit (Stratagene, San Diego, CA, USA) using hARWT plasmid as a template. Androgen-starved PC3 cells were seeded in 96-well plates (3000 cells/well) in RPMI 1640 + 5% CSS for 24 h followed by transfection with 50 ng of hARWT or hART878A along with 50 ng of ARR3tk-luciferase reporter construct (100 ng total plasmid DNA) and 0.3 µL/well TransIT20/20 transfection reagent (TT2020, Mirus, Madison, Wisconsin, WI, USA) for 48 h. Cells were treated with increasing amounts of test compound (0.1% final DMSO concentration) and 0.1 nM R1881 for 24 h. Cell lysis was carried out with 60 µL 1X passive lysis buffer/well (Promega, Madison, Wisconsin, WI, USA). The luminescence from 20 µL of cell lysate and 50 µL of Luciferase assay reagent (Promega, Madison, Wisconsin, WI, USA) was recorded on a TECAN M200pro plate reader.

Androgen Receptor ABS = target: T2, Androgen Receptor ABS (Rattus norvegicus, UniProt P15207); assay: Androgen (DHT) displacement, Polar Screen Androgen Receptor Competitor Green Assay Kit; type: binding; settings: fluorescence polarization kit
T2 construct: purchased
T2 sequence (P15207 647-902 limits assumed): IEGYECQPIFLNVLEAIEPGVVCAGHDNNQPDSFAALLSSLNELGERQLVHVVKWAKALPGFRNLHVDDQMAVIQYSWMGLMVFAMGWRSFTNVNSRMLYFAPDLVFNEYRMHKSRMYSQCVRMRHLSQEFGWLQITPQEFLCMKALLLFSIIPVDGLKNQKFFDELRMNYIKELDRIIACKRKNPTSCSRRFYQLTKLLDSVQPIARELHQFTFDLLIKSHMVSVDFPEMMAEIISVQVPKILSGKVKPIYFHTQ
Method: Androgen displacement was assessed with the Polar Screen Androgen Receptor Competitor Green Assay Kit as per the instructions of the manufacturer.

[1] = target: T3, AR (LNCaP cells, which carry the T878A AR mutation) (Homo sapiens, UniProt P10275, T878A); assay: eGFP cellular AR transcription assay in LNCaP cells (LN-ARR2PB-eGFP); type: cell-based; settings: eGFP-expressing LNCaP cells, no R1881
T3 construct: LNCaP cells, which carry the T878A AR mutation; endogenous in cells; host or cells: LNCaP (LN-ARR2PB-eGFP)
T3 sequence (P10275 1-920 T878A): T1 sequence (P10275 1-920) with T878A

In the case of `COc1c(F)cccc1-c1csc(N2CCOCC2)n1` [VPC14368, 4-(4-(3-fluoro-2-methoxyphenyl)thiazol-2-yl)morpholine], the “AR transcription, wild-type AR” value (wild-type AR) is reported as “inhibited by VPC14368 in a dose-dependent manner”, the “Androgen Displacement (Yes/No)” value (Androgen Receptor ABS) is reported as “Yes” and the “AR transcriptional activity in the absence of R1881” value [1] is reported as “enhanced the AR transcriptional activity”.
